Experimental data as given in patent publication US11958814B1, “3-(4-nitrophenyl)-5-((2-isopropyl-5-methylphenoxy)methyl)-1,2,4-oxadiazole as an anti-cancer and antimicrobial compound” (KING FAISAL UNIVERSITY, priority 2023, dated 2024).

Legend:
[1] = system: human osteosarcoma cells (MG-63); test: Cytotoxicity by SRB assay; format: cell-based; conditions: MG-63 cells, 0.01 μM to 100 μM for 72 h
Description: (§1) The anticancer activity of the described synthesized compounds against highly aggressive androgen-independent metastatic human prostate cancer cells (PC3) and osteosarcoma (MG-63) cells. The human prostate cancer cells (PC3) and human osteosarcoma cells (MG-63) were obtained from Nawah Scientific Inc. (Mokatam, Cairo, Egypt) and cultured in DMEM (Dulbecco's modified eagle's medium), Gibco, USA, supplemented with fetal bovine serum (FBS) at a concentration of 10% and 100 U/mL of penicillin and streptomycin (PS). The Cells were incubated at 37° C. in a humidified environment that contained 5% CO2.
(§2) Cells were seeded in 96-well plates as aliquots of 100 μL cell suspension and incubated in a complete media for 24 h. afterward, cells were treated with 3-(4-nitrophenyl)-5-((2-isopropyl-5-methylphenoxy)methyl)-1,2,4-oxadiazole at diverse concentrations ranging from 0.01 μM to 100 μM for 72 h. Then, cells were fixed at 4° C. for one hour with 150 μL of 10% trichloroacetic acid (TCA). […] Then, 150 μL of Tris pH 10.5 (10 mM) was added, and the absorbance was measured at 540 nm using a BMG LABTECH®-FLUOstar Omega microplate reader (Ortenberg, Germany). Half maximal inhibitory concentrations (IC50) values were calculated for each experiment using GraphPad Prism 6 software. […]
(§3) The inhibition was calculated using the following equation: Inhibition %=100−Average Viability

[2] = system: human prostate cancer cells (PC3); test: Cytotoxicity by SRB assay; format: cell-based; conditions: 0.01 μM to 100 μM for 72 h
Description: as §1, §2, §3

[3] = system: Aspergillus flavus; test: Agar plate disc-diffusion, inhibition zone (antifungal); format: cell-based; conditions: 72 h for fungi
Experimental: (§4) The agar plate disc-diffusion method was applied. Sterilized filter papers (6 mm in diameter) were wetted with 10 μL of a solution of 3-(4-nitrophenyl)-5-((2-isopropyl-5-methylphenoxy)methyl)-1,2,4-oxadiazole (3) to be tested, containing 10 mg/mL in DMSO, and the discs were allowed to air dry. The discs were then placed onto the surface of agar plates (nutrient agar for bacteria and Sabouraud's dextrose agar for fungi) seeded with the test organism. Each plate contained 15 mL of the agar medium, previously seeded with 0.2 mL of the broth culture of each organism pregrown for 18 hours. The plates were incubated at 37° C. for 48 h, and 72 h for fungi. The inhibition zones were measured in mm. Discs impregnated with DMSO were used as a control, and its inhibition zone was subtracted from the tested compound actual inhibition zone.

[4] = system: Chrysosporium keratinophilum; test: as above; format: cell-based; conditions: 72 h for fungi
Experimental: as §4

[5] = system: Bacillus cereus; test: Agar plate disc-diffusion, inhibition zone; format: cell-based; conditions: 37° C., 48 h
Experimental: as §4

[6] = system: Escherichia coli; test: Agar plate disc-diffusion, inhibition zone; format: cell-based; conditions: 37° C., 48 h
Experimental: as §4

[7] = system: Pseudomonas aeruginosa; test: Agar plate disc-diffusion, inhibition zone; format: cell-based; conditions: 37° C., 48 h
Experimental: as §4

[8] = system: Staphylococcus aureus; test: Agar plate disc-diffusion, inhibition zone; format: cell-based; conditions: 37° C., 48 h
Experimental: as §4

[9] = system: different microbes; test: Antimicrobial screening by agar plate disc-diffusion, overall statement; format: cell-based; conditions: against different microbes (bacteria and fungi of Tables 1 and 2)
Experimental: as §4

[10] = A = concentration of comp. = 10,000 μL
[11] = B = concentration of comp. = 30,000 μL
[12] = C = concentration of comp. = 50,000 μL
[13] = A = concentration of comp. = 10,000 μg/mL
[14] = A = concentration of comp. = 10 mg/mL

| SMILES | inhibition zone [3, 10] [mm] | inhibition zone [3, 11] [mm] | inhibition zone [3, 12] [mm] | inhibition zone [4, 10] [mm] | inhibition zone [4, 11] [mm] | inhibition zone [4, 12] [mm] | inhibition zone [5, 13] [mm] | inhibition zone [5, 11] [mm] | inhibition zone [5, 12] [mm] | inhibition zone [6, 10] [mm] | inhibition zone [6, 11] [mm] | inhibition zone [6, 12] [mm] | inhibition zone [7, 10] [mm] | inhibition zone [7, 11] [mm] | inhibition zone [7, 12] [mm] | inhibition zone [8, 14] [mm] | inhibition zone [8, 11] [mm] | inhibition zone [8, 12] [mm] | also measured |
| --- | --- | --- | --- | --- | --- | --- | --- | --- | --- | --- | --- | --- | --- | --- | --- | --- | --- | --- | --- |
| Cc1ccc(C(C)C)c(OCc2nc(-c3ccc([N+](=O)[O-])cc3)no2)c1 [3-(4-nitrophenyl)-5-((2-isopropyl-5-methylphenoxy)methyl)-1,2,4-oxadiazole] |  |  |  |  |  |  |  |  |  |  |  |  |  |  |  |  |  |  | antiproliferative activity (in words) [1]: excellent antiproliferative activities; antiproliferative activity (in words) [2]: excellent antiproliferative activities |
| O=C(O)c1cn(C2CC2)c2cc(N3CCNCC3)c(F)cc2c1=O [Cip., ciprofloxacin, reference compound] | 29 | 30 | 42 | 29 | 30 | 53 | 29 | 30 | 42 | 30 | 39 | 60 | 29 | 30 | 53 | 43 | 44 | 53 |  |
| Cc1ccc(C(C)C)c(OCc2nc(-c3ccc([N+](=O)[O-])cc3)no2)c1 [Compound 3, 3-(4-nitrophenyl)-5-((2-isopropyl-5-methylphenoxy)methyl)-1,2,4-oxadiazole] | 20 | 23 | 36 | 28 | 30 | 49 | 22 | 25 | 38 | 27 | 36 | 50 | 26 | 27 | 43 | 18 | 23 | 35 | antimicrobial activity (in words) [9]: excellent antimicrobial activities; melting point: 172 to 173 °C |
